This is an account of results in patent US10752640B2, “Compounds active towards bromodomains” (NUEVOLUTION A/S, priority 2014, dated 2020).

The assay deals with BRD4 protein (Homo sapiens, UniProt O60885). Briefly: FRET assay, half maximal inhibitory concentration (IC50). The conditions noted are these: BRD4 protein 50 nM, Biotin-H4KAc4 peptide 12.5 nM; A Further List of Classification. The class given is binding. In outline:
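HTRF: 50 nM BRD4 preincubated 30 min at room temperature with compound (10-fold series from 50 μM in 12.5% DMSO) in 50 mM HEPES pH 7.5, 100 mM NaCl, 0.05% CHAPS. Then 12.5 nM biotin-H4KAc4 peptide for 30 min, and anti-GST XL665 (10 nM) plus streptavidin cryptate (2.4 nM) with 0.4 M KF for 1 h. IC50 by variable-slope fit.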
What is called IC50 is the point on the concentration scale where inhibition reaches its midpoint. As to `CN1Cc2cc(NC(=O)c3cc(S(=O)(=O)N(C)C)ccc3N3CCOCC3)ccc2NC1=O` [S39, 5-(dimethylsulfamoyl)-N-(3-methyl-2-oxo-1,4-dihydroquinazolin-6-yl)-2-morpholino-benzamide], the concentration for half-maximal inhibition (IC50) is less than 200 nM.

As for `Cc1cc(O)nc2ccc(NC(=O)c3cc(S(=O)(=O)N(C)C)ccc3N3CCC(C)C3)cc12` (centres unmarked) [S41, 5-(dimethylsulfamoyl)-N-(2-hydroxy-4-methyl-6-quinolyl)-2-(3-methylpyrrolidin-1-yl)benzamide], the IC50 lay within 500 to 1000 nM.

In the case of `Cc1cc(O)nc2ccc(NC(=O)c3cc(S(=O)(=O)N(C)C)ccc3N3CCC(F)C3)cc12` (centres unmarked) [S42, 5-(dimethylsulfamoyl)-2-(3-fluoropyrrolidin-1-yl)-N-(2-hydroxy-4-methyl-6-quinolyl)benzamide], the IC50 is less than 200 nM.

Turning to `COC1CCN(c2ccc(S(=O)(=O)N(C)C)cc2C(=O)Nc2ccc3nc(O)cc(C)c3c2)C1` (centres unmarked) [S43, 5-(dimethylsulfamoyl)-N-(2-hydroxy-4-methyl-6-quinolyl)-2-(3-methoxypyrrolidin-1-yl)benzamide], the IC50 was in the range of 500 to 1000 nM.

`Cc1cc(O)nc2ccc(NC(=O)c3cc(S(=O)(=O)N(C)C)ccc3N3CCC(C(N)=O)C3)cc12` (centres unmarked) [S44, 1-[4-(dimethylsulfamoyl)-2-[(2-hydroxy-4-methyl-6-quinolyl)carbamoyl]phenyl]pyrrolidine-3-carboxamide] gave an IC50 of less than 200 nM.

On to `Cc1cc(O)nc2ccc(NC(=O)c3cc(S(=O)(=O)N(C)C)ccc3N3CCC(N(C)C)C3)cc12` (centres unmarked) [S45, 2-[3-(dimethylamino)pyrrolidin-1-yl]-5-(dimethylsulfamoyl)-N-(2-hydroxy-4-methyl-6-quinolyl)benzamide], for which the IC50 lay in the range of 500 to 1000 nM.

As to `Cc1cc(O)nc2ccc(NC(=O)c3cc(S(=O)(=O)N(C)C)ccc3N3CCC(CC(C)C)C3)cc12` (centres unmarked) [S46, 5-(dimethylsulfamoyl)-N-(2-hydroxy-4-methyl-6-quinolyl)-2-(3-isobutylpyrrolidin-1-yl)benzamide], the IC50 was in the range of 500 to 1000 nM.

`Cc1cc(O)nc2ccc(NC(=O)c3cc(S(=O)(=O)N(C)C)ccc3N3CCC(CN(C)C)C3)cc12` (centres unmarked) [S47, 2-[3-(dimethylaminomethyl)pyrrolidin-1-yl]-5-(dimethylsulfamoyl)-N-(2-hydroxy-4-methyl-6-quinolyl)benzamide]: the IC50 is less than 200 nM.

As for `Cc1cc(O)nc2ccc(NC(=O)c3cc(S(=O)(=O)N(C)C)ccc3N3CCC(NC(N)=O)C3)cc12` (centres unmarked) [S48, 5-(dimethylsulfamoyl)-N-(2-hydroxy-4-methyl-6-quinolyl)-2-(3-ureidopyrrolidin-1-yl)benzamide], the IC50 was less than 200 nM.

`Cc1cc(O)nc2ccc(NC(=O)c3cc(S(=O)(=O)N(C)C)ccc3N3CCC(N4CCCC4)C3)cc12` (centres unmarked) [S49, 5-(dimethylsulfamoyl)-N-(2-hydroxy-4-methyl-6-quinolyl)-2-(3-pyrrolidin-1-ylpyrrolidin-1-yl)benzamide] showed an IC50 of 500 to 1000 nM.

`Cc1cc(O)nc2ccc(NC(=O)c3cc(S(=O)(=O)N(C)C)ccc3N3CCC(OCC(N)=O)C3)cc12` (centres unmarked) [S50, 2-[3-(2-amino-2-oxo-ethoxy)pyrrolidin-1-yl]-5-(dimethylsulfamoyl)-N-(2-hydroxy-4-methyl-6-quinolyl)benzamide] showed a concentration for half-maximal inhibition (IC50) of 500 to 1000 nM.

Consider `Cc1cc(O)nc2ccc(NC(=O)c3cc(S(=O)(=O)N(C)C)ccc3N3CCC(c4ccccc4)C3)cc12` (centres unmarked) [S51, 5-(dimethylsulfamoyl)-N-(2-hydroxy-4-methyl-6-quinolyl)-2-(3-phenylpyrrolidin-1-yl)benzamide], for which the IC50 is less than 200 nM.

For `Cc1cc(O)nc2ccc(NC(=O)c3cc(S(=O)(=O)N(C)C)ccc3N3CCCC3C)cc12` (centres unmarked) [S52, 5-(dimethylsulfamoyl)-N-(2-hydroxy-4-methyl-6-quinolyl)-2-(2-methylpyrrolidin-1-yl)benzamide], the IC50 lay in the range of 500 to 1000 nM.

In turn, `COCC1CCCN1c1ccc(S(=O)(=O)N(C)C)cc1C(=O)Nc1ccc2nc(O)cc(C)c2c1` (centres unmarked) [S53, 5-(dimethylsulfamoyl)-N-(2-hydroxy-4-methyl-6-quinolyl)-2-[2-(methoxymethyl)pyrrolidin-1-yl]benzamide] registered an IC50 of less than 200 nM.
